Measured values from patent publication US12077503B2, “Substituted cyclic amides and their use as herbicides” (FMC CORPORATION, priority 2015, dated 2024).

Columns and labels:
Format in all cases: in vivo
[1] = tested on: barnyardgrass (Echinochloa crus-galli); assay: Test G Pre-Emergence Protocol; settings: Echinochloa crus-galli, pre-emergence, 312 h, evaluated after 13 days
How it was run: (§1)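 Visual injury (0–100) at day 13 after a single pre-emergence spray. Rates: 15.625, 62.5, 250 g/ha in acetone–water 50:50 with 0.5% Tween 20. Growth conditions: 24/16° C, 14 h light, 65% humidity.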

corn (Zea mays) [2] = assay: Test G Pre-Emergence Protocol; settings: Zea mays, pre-emergence, 312 h, evaluated after 13 days
How it was run: as §1

[3] = tested on: giant foxtail (Setaria faberi); assay: Test G Pre-Emergence Protocol; settings: Setaria faberi, pre-emergence, 312 h, evaluated after 13 days
How it was run: as §1

[4] = tested on: ivy-leaved morning glory (Ipomoea hederacea); assay: Test G Pre-Emergence Protocol; settings: Ipomoea, pre-emergence, 312 h, evaluated after 13 days
How it was run: as §1

[5] = tested on: redroot pigweed (Amaranthus retroflexus); assay: Test G Pre-Emergence Protocol; settings: Amaranthus retroflexus, pre-emergence, 312 h, evaluated after 13 days
How it was run: as §1

[6] = tested on: velvetleaf (Abutilon theophrasti); assay: Test G Pre-Emergence Protocol; settings: Abutilon theophrasti, pre-emergence, 312 h, evaluated after 13 days
How it was run: as §1

[7] = tested on: barnyardgrass (Echinochloa crus-galli); assay: Test G Post-Emergence Protocol; settings: Echinochloa crus-galli, post-emergence, 312 h, read-out: Barnyardgrass damage rating
How it was run: (§2)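 Damage was rated 13 days after treatment from 0 (none) to 100 (plant killed). Compound was applied as a spray at 15.625, 62.5 or 250 g/ha in 50:50 acetone/water containing 0.5% Tween 20, onto 8-day-old potted plants kept in a glasshouse (24/16 °C, 14 h light, 65% humidity).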

corn (Zea mays) [8] = assay: Test G Post-Emergence Protocol; settings: Zea mays, post-emergence, 312 h, read-out: Corn damage rating
How it was run: as §2

[9] = tested on: giant foxtail (Setaria faberi); assay: Test G Post-Emergence Protocol; settings: Setaria faberi, post-emergence, 312 h, read-out: Foxtail, Giant damage rating
How it was run: as §2

[10] = tested on: ivy-leaved morning glory (Ipomoea hederacea); assay: Test G Post-Emergence Protocol; settings: Ipomoea, post-emergence, 312 h, read-out: Morningglory, Ivy-leaved damage rating
How it was run: as §2

[11] = tested on: redroot pigweed (Amaranthus retroflexus); assay: Test G Post-Emergence Protocol; settings: Amaranthus retroflexus, post-emergence, 312 h, read-out: Pigweed, Redroot damage rating
How it was run: as §2

[12] = tested on: velvetleaf (Abutilon theophrasti); assay: Test G Post-Emergence Protocol; settings: Abutilon theophrasti, post-emergence, 312 h, read-out: Velvetleaf damage rating
How it was run: as §2

[13] = 15.625 g ai/ha, evaluated after 13 days (100=total damage to plant; 0=no damage to plant)
[14] = 62.5 g ai/ha, evaluated after 13 days, 100=total damage to plant, 0=no damage to plant
[15] = 250 g ai/ha, evaluated after 13 days, 100=total damage to plant, 0=no damage to plant

CCOc1cc(C2CN(C)C(=O)C2C(=O)Nc2cccc(F)c2F)cc(C(F)(F)F)c1 (stereo not drawn) [Compound 1696]
pest or weed control at 15.625 g/ha ([1]; 15.625 g ai/ha, read-out: Barnyardgrass damage rating (100=total damage to plant; 0=no damage to plant)): 10% | pest or weed control at 62.5 g/ha ([1]; 62.5 g ai/ha, 100=total damage to plant, 0=no damage to plant, read-out: Barnyardgrass damage rating): 70% | pest or weed control at 250 g/ha ([1]; 250 g ai/ha, read-out: Barnyardgrass damage rating (100=total damage to plant; 0=no damage to plant)): 80% | plant injury at 15.625 g/ha (corn (Zea mays) [2]; 15.625 g ai/ha, read-out: Corn damage rating (100=total damage to plant; 0=no damage to plant)): 0% | plant injury at 62.5 g/ha (corn (Zea mays) [2]; 62.5 g ai/ha, 100=total damage to plant, 0=no damage to plant, read-out: Corn damage rating): 40% | plant injury at 250 g/ha (corn (Zea mays) [2]; 250 g ai/ha, read-out: Corn damage rating (100=total damage to plant; 0=no damage to plant)): 50% | pest or weed control at 15.625 g/ha ([3]; 15.625 g ai/ha, read-out: Foxtail, Giant damage rating (100=total damage to plant; 0=no damage to plant)): 60% | pest or weed control at 62.5 g/ha ([3]; 62.5 g ai/ha, 100=total damage to plant, 0=no damage to plant, read-out: Foxtail, Giant damage rating): 80% | pest or weed control at 250 g/ha ([3]; 250 g ai/ha, read-out: Foxtail, Giant damage rating (100=total damage to plant; 0=no damage to plant)): 90% | pest or weed control at 15.625 g/ha ([4]; 15.625 g ai/ha, read-out: Morningglory, Ivy-leaved damage rating (100=total damage to plant; 0=no damage to plant)): 10% | pest or weed control at 62.5 g/ha ([4]; 62.5 g ai/ha, 100=total damage to plant, 0=no damage to plant, read-out: Morningglory, Ivy-leaved damage rating): 10% | pest or weed control at 250 g/ha ([4]; 250 g ai/ha, read-out: Morningglory, Ivy-leaved damage rating (100=total damage to plant; 0=no damage to plant)): 20% | pest or weed control at 15.625 g/ha ([5]; 15.625 g ai/ha, read-out: Pigweed, Redroot damage rating (100=total damage to plant; 0=no damage to plant)): 20% | pest or weed control at 62.5 g/ha ([5]; 62.5 g ai/ha, 100=total damage to plant, 0=no damage to plant, read-out: Pigweed, Redroot damage rating): 0% | pest or weed control at 250 g/ha ([5]; 250 g ai/ha, read-out: Pigweed, Redroot damage rating (100=total damage to plant; 0=no damage to plant)): 20% | pest or weed control at 15.625 g/ha ([6]; 15.625 g ai/ha, read-out: Velvetleaf damage rating (100=total damage to plant; 0=no damage to plant)): 10% | pest or weed control at 62.5 g/ha ([6]; 62.5 g ai/ha, 100=total damage to plant, 0=no damage to plant, read-out: Velvetleaf damage rating): 0% | pest or weed control at 250 g/ha ([6]; 250 g ai/ha, read-out: Velvetleaf damage rating (100=total damage to plant; 0=no damage to plant)): 0% | pest or weed control at 15.625 g/ha [7, 13]: 40% | pest or weed control at 62.5 g/ha [7, 14]: 70% | pest or weed control at 250 g/ha [7, 15]: 80% | plant injury at 15.625 g/ha (corn (Zea mays) [8]; [13]): 50% | plant injury at 62.5 g/ha (corn (Zea mays) [8]; [14]): 70% | plant injury at 250 g/ha (corn (Zea mays) [8]; [15]): 70% | pest or weed control at 15.625 g/ha [9, 13]: 70% | pest or weed control at 62.5 g/ha [9, 14]: 80% | pest or weed control at 250 g/ha [9, 15]: 80% | pest or weed control at 15.625 g/ha [10, 13]: 20% | pest or weed control at 62.5 g/ha [10, 14]: 60% | pest or weed control at 250 g/ha [10, 15]: 60% | pest or weed control at 15.625 g/ha [11, 13]: 70% | pest or weed control at 62.5 g/ha [11, 14]: 50% | pest or weed control at 250 g/ha [11, 15]: 60% | pest or weed control at 15.625 g/ha [12, 13]: 0% | pest or weed control at 62.5 g/ha [12, 14]: 0% | pest or weed control at 250 g/ha [12, 15]: 10%
